In PubChem BioAssay (NCI):
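Test compounds were applied to cells in 96-well plates for 48 hours at 5 doses. GI50 is the concentration that inhibits growth by half. Definition used: TGI = concentration required for complete inhibition of growth.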

Experiments:
Test in all cases: NCI tumour cell line growth inhibition, 48 h
[1] = tested on: NCI-H226 lung
[2] = tested on: HOP-62 NSCLC
[3] = tested on: RPMI-8226 leukemia
[4] = tested on: SK-OV-3 ovarian
[5] = tested on: MALME-3M melanoma
[6] = tested on: SF-268 CNS
[7] = tested on: UO-31 renal
[8] = tested on: CCRF-CEM leukemia
[9] = tested on: U251 CNS
[10] = tested on: OVCAR-8 ovarian
[11] = tested on: SF-295 CNS
[12] = tested on: SW-620 colon
[13] = tested on: PC-3 prostate
[14] = tested on: HL-60(TB) leukemia
[15] = tested on: SF-539 CNS
[16] = tested on: HT29 colon
[17] = tested on: T-47D breast
[18] = tested on: SN12C renal
[19] = tested on: NCI-H23 lung
[20] = tested on: HCT-15 colon
[21] = tested on: M14 melanoma
[22] = tested on: MCF7 breast
[23] = tested on: SK-MEL-28 melanoma
[24] = tested on: SK-MEL-2 melanoma
[25] = tested on: 786-0 renal
[26] = tested on: MDA-MB-435
[27] = tested on: OVCAR-4 ovarian
[28] = tested on: LOX IMVI melanoma
[29] = tested on: TK-10 renal
[30] = tested on: HCT-116 colon
[31] = tested on: OVCAR-3 ovarian
[32] = tested on: A498 renal
[33] = tested on: ACHN renal
[34] = tested on: MDA-MB-231 breast
[35] = tested on: HOP-92 NSCLC
[36] = tested on: SNB-75 CNS
[37] = tested on: NCI/ADR-RES ovarian
[38] = tested on: IGROV1 ovarian
[39] = tested on: UACC-257 melanoma
[40] = tested on: UACC-62 melanoma
[41] = tested on: EKVX NSCLC
[42] = tested on: SR leukemia
[43] = tested on: NCI-H522 lung
[44] = tested on: RXF 393 renal
[45] = tested on: OVCAR-5 ovarian
[46] = tested on: K-562 leukemia
[47] = tested on: BT-549 breast
[48] = tested on: DU-145 prostate
[49] = tested on: A549 NSCLC
[50] = tested on: HS 578T breast
[51] = tested on: NCI-H460 lung
[52] = tested on: MOLT-4 leukemia
[53] = tested on: HCC-2998 colon
[54] = tested on: SNB-19 CNS
[55] = tested on: COLO 205 colon
[56] = tested on: SK-MEL-5 melanoma
[57] = tested on: KM12 colon

`Clc1ccc2c(NCCCCNc3nc(N4CCCCC4)nc4ccccc34)ccnc2c1` was tested, and the GI50 [1] was 3.85 µM, the TGI [1] was 16.5 µM and the GI50 [2] was 1.9 µM. For the same compound, the TGI [2] was 5.88 µM, the GI50 [3] was 1.46 µM and the TGI [3] was 3.94 µM. For the same compound, the GI50 [4] was 3.81 µM, the TGI [4] was 14.4 µM and the GI50 [5] was 1.85 µM. For the same compound, the TGI [5] was 3.48 µM, the GI50 [6] was 1.84 µM and the TGI [6] was 7.56 µM. It also gave a GI50 [7] of 1.47 µM, a TGI [7] of 3.05 µM and a GI50 [8] of 1.66 µM. For the same compound, the TGI [8] was 5.23 µM, the GI50 [9] was 2.02 µM and the TGI [9] was 4.56 µM. For the same compound, the GI50 [10] was 2.82 µM, the TGI [10] was 10.4 µM and the GI50 [11] was 1.22 µM. It also gave a TGI [11] of 2.6 µM, a GI50 [12] of 1.59 µM and a TGI [12] of 4.78 µM. It also gave a GI50 [13] of 3.33 µM, a TGI [13] of 14.6 µM and a GI50 [14] of 1.76 µM. It also gave a TGI [14] of 3.52 µM, a GI50 [15] of 1.49 µM and a TGI [15] of 2.97 µM. It also gave a GI50 [16] of 1.63 µM, a TGI [16] of 4.86 µM and a GI50 [17] of 2.12 µM. For the same compound, the TGI [17] was 4.3 µM, the GI50 [18] was 2.78 µM and the TGI [18] was 12.7 µM. It also gave a GI50 [19] of 4.67 µM, a TGI [19] of 19.2 µM and a GI50 [20] of 1.15 µM. The TGI [20] was 3.13 µM, the GI50 [21] was 1.62 µM and the TGI [21] was 3.14 µM. It also gave a GI50 [22] of 2.52 µM, a TGI [22] of 10.8 µM and a GI50 [23] of 1.89 µM. The TGI [23] was 3.82 µM, the GI50 [24] was 1.98 µM and the TGI [24] was 4.02 µM. For the same compound, the GI50 [25] was 1.44 µM, the TGI [25] was 2.76 µM and the GI50 [26] was 1.67 µM. The TGI [26] was 3.2 µM, the GI50 [27] was 1.59 µM and the TGI [27] was 5.24 µM. It also gave a GI50 [28] of 1.5 µM, a TGI [28] of 3.14 µM and a GI50 [29] of 1.68 µM. The TGI [29] was 3.5 µM, the GI50 [30] was 1.2 µM and the TGI [30] was 3.06 µM. It also gave a GI50 [31] of 1.95 µM, a TGI [31] of 4.89 µM and a GI50 [32] of 1.78 µM. It also gave a TGI [32] of 4.62 µM, a GI50 [33] of 2.1 µM and a TGI [33] of 4.77 µM. It also gave a GI50 [34] of 1.75 µM, a TGI [34] of 4.28 µM and a GI50 [35] of 1.56 µM. It also gave a TGI [35] of 3.39 µM, a GI50 [36] of 1.32 µM and a TGI [36] of 3.13 µM. For the same compound, the GI50 [37] was 2.68 µM, the TGI [37] was 9.18 µM and the GI50 [38] was 1.8 µM. For the same compound, the TGI [38] was 6.59 µM, the GI50 [39] was 2.05 µM and the TGI [39] was 3.68 µM. It also gave a GI50 [40] of 1.79 µM, a TGI [40] of 3.48 µM and a GI50 [41] of 2.69 µM. It also gave a TGI [41] of 13.8 µM, a GI50 [42] of 0.408 µM and a TGI [42] of 2.88 µM. For the same compound, the GI50 [43] was 2.04 µM, the TGI [43] was 5.3 µM and the GI50 [44] was 1.66 µM. It also gave a TGI [44] of 3.37 µM, a GI50 [45] of 2.17 µM and a TGI [45] of 9.23 µM. The GI50 [46] was 1.34 µM, the TGI [46] was 4.1 µM and the GI50 [47] was 1.78 µM. The TGI [47] was 4.1 µM, the GI50 [48] was 3.8 µM and the TGI [48] was 15.2 µM. For the same compound, the GI50 [49] was 3.15 µM, the TGI [49] was 10.3 µM and the GI50 [50] was 1.82 µM. It also gave a TGI [50] of 4.6 µM, a GI50 [51] of 2.56 µM and a TGI [51] of 9.03 µM. For the same compound, the GI50 [52] was 1.98 µM, the TGI [52] was 5.62 µM and the GI50 [53] was 1.96 µM. The TGI [53] was 4.23 µM, the GI50 [54] was 3.09 µM and the TGI [54] was 14.2 µM. It also gave a GI50 [55] of 1.64 µM, a TGI [55] of 3.59 µM and a GI50 [56] of 1.77 µM. For the same compound, the TGI [56] was 3.18 µM, the GI50 [57] was 3.4 µM and the TGI [57] was 13.1 µM.
